Test results: PubChem BioAssay AID1963422 (Molecular Pharmacology Branch, DTP, NCI, 2024)

Tested on: 463943-066-T-J2-PDC complex spheroid growth
Assay: Anticancer human tumor 463943-066-T-J2-PDC patient-derived colon adenocarcinoma cell line growth inhibition [Asc]
Conditions: for IC50: curve of first compound; for viability, T/C: stronger effect = lower value
Procedure, shortened: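 Tumor cells were grown as multicellular spheroids with stromal HUVEC and mesenchymal stem cells and treated singly or in combination. Concentrations fell in half-log steps from the clinical Cmax, or from 10 microM where none was known.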

[1] = second compound 0.00316 µM, first compound 0.0316 µM
[2] = second compound 0.00316 µM, first compound 0.1 µM
[3] = second compound 0.01 µM, first compound 0.0316 µM
[4] = second compound 0.01 µM, first compound 0.1 µM
[5] = second compound 0.0316 µM, first compound 0.0316 µM
[6] = second compound 0.0316 µM, first compound 0.1 µM
[7] = second compound 0.1 µM, first compound 0.0316 µM
[8] = second compound 0.1 µM, first compound 0.1 µM
[9] = second compound 0.316 µM, first compound 0.0316 µM
[10] = second compound 0.316 µM, first compound 0.1 µM
[11] = second compound 1 µM, first compound 0.0316 µM
[12] = second compound 1 µM, first compound 0.1 µM
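Also: compound exposure lasted 7 days.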
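For viability, T/C in this document: 100% = DMSO vehicle control wells.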

Cc1nc(N2CCC3(CC2)COC(C)C3N)c(CO)nc1Sc1ccnc(N)c1Cl (stereo unspecified) + CCN1C(C(=O)NC23CCC(C(=O)O)(CC2)CC3)C(c2cccc(Cl)c2F)C2(C(=O)Nc3cc(Cl)ccc32)C12CCCCC2 gave an IC50 (second compound 0.00949 µM) greater than 3 µM, an IC50 (second compound 0.03 µM) greater than 3 µM and an IC50 (second compound 0.0949 µM) greater than 3 µM. For the same compound, the IC50 (second compound 0.3 µM) was greater than 3 µM, the IC50 (second compound 0.949 µM) was greater than 3 µM and the IC50 (second compound 3 µM) was greater than 3 µM. It also gave a viability, T/C (second compound 0.00949 µM, first compound 0.00949 µM) of 96.7%, a viability, T/C (second compound 0.00949 µM, first compound 0.03 µM) of 88% and a viability, T/C (second compound 0.00949 µM, first compound 0.0949 µM) of 87%. It also gave a viability, T/C (second compound 0.00949 µM, first compound 0.3 µM) of 81.5%, a viability, T/C (second compound 0.00949 µM, first compound 0.949 µM) of 82.3% and a viability, T/C (second compound 0.00949 µM, first compound 3 µM) of 63.6%. For the same compound, the viability, T/C (second compound 0.03 µM, first compound 0.00949 µM) was 91%, the viability, T/C (second compound 0.03 µM, first compound 0.03 µM) was 91.3% and the viability, T/C (second compound 0.03 µM, first compound 0.0949 µM) was 81.2%. It also gave a viability, T/C (second compound 0.03 µM, first compound 0.3 µM) of 82.2%, a viability, T/C (second compound 0.03 µM, first compound 0.949 µM) of 74% and a viability, T/C (second compound 0.03 µM, first compound 3 µM) of 60%. For the same compound, the viability, T/C (second compound 0.0949 µM, first compound 0.00949 µM) was 90.1%, the viability, T/C (second compound 0.0949 µM, first compound 0.03 µM) was 86.8% and the viability, T/C (second compound 0.0949 µM, first compound 0.0949 µM) was 76.2%. It also gave a viability, T/C (second compound 0.0949 µM, first compound 0.3 µM) of 75.7%, a viability, T/C (second compound 0.0949 µM, first compound 0.949 µM) of 71.5% and a viability, T/C (second compound 0.0949 µM, first compound 3 µM) of 61.9%. For the same compound, the viability, T/C (second compound 0.3 µM, first compound 0.00949 µM) was 82.7%, the viability, T/C (second compound 0.3 µM, first compound 0.03 µM) was 82.5% and the viability, T/C (second compound 0.3 µM, first compound 0.0949 µM) was 82.5%. For the same compound, the viability, T/C (second compound 0.3 µM, first compound 0.3 µM) was 72.2%, the viability, T/C (second compound 0.3 µM, first compound 0.949 µM) was 64% and the viability, T/C (second compound 0.3 µM, first compound 3 µM) was 59.1%. The viability, T/C (second compound 0.949 µM, first compound 0.00949 µM) was 74.3%, the viability, T/C (second compound 0.949 µM, first compound 0.03 µM) was 72.2% and the viability, T/C (second compound 0.949 µM, first compound 0.0949 µM) was 62.7%. The viability, T/C (second compound 0.949 µM, first compound 0.3 µM) was 62.3%, the viability, T/C (second compound 0.949 µM, first compound 0.949 µM) was 60.3% and the viability, T/C (second compound 0.949 µM, first compound 3 µM) was 53.2%. For the same compound, the viability, T/C (second compound 3 µM, first compound 0.00949 µM) was 70.7%, the viability, T/C (second compound 3 µM, first compound 0.03 µM) was 64.6% and the viability, T/C (second compound 3 µM, first compound 0.0949 µM) was 64.1%. It also gave a viability, T/C (second compound 3 µM, first compound 0.3 µM) of 63%, a viability, T/C (second compound 3 µM, first compound 0.949 µM) of 60.6% and a viability, T/C (second compound 3 µM, first compound 3 µM) of 49.6%.

Cn1ncnc1[C@H]1c2n[nH]c(=O)c3cc(F)cc(c23)N[C@@H]1c1ccc(F)cc1 + CNC(C)C(=O)NC1CN(S(=O)(=O)c2cccc(S(=O)(=O)N3CCC4CCC(C(=O)NC(c5ccccc5)c5ccccc5)N4C(=O)C(NC(=O)C(C)NC)C3)c2)CCC2CCC(C(=O)NC(c3ccccc3)c3ccccc3)N2C1=O was tested, and the IC50 (second compound 0.00316 µM) was greater than 0.1 µM, the IC50 (second compound 0.01 µM) was greater than 0.1 µM and the IC50 (second compound 0.0316 µM) was greater than 0.1 µM. It also gave an IC50 (second compound 0.1 µM) greater than 0.1 µM, an IC50 (second compound 0.316 µM) greater than 0.1 µM and an IC50 (second compound 1 µM) greater than 0.1 µM. For the same compound, the viability, T/C (second compound 0.00316 µM, first compound 0.000316 µM) was 92.7%, the viability, T/C (second compound 0.00316 µM, first compound 0.001 µM) was 91.4% and the viability, T/C (second compound 0.00316 µM, first compound 0.00316 µM) was 94.3%. It also gave a viability, T/C (second compound 0.00316 µM, first compound 0.01 µM) of 94%, a viability, T/C [1] of 101% and a viability, T/C [2] of 92.4%. For the same compound, the viability, T/C (second compound 0.01 µM, first compound 0.000316 µM) was 92.4%, the viability, T/C (second compound 0.01 µM, first compound 0.001 µM) was 89.9% and the viability, T/C (second compound 0.01 µM, first compound 0.00316 µM) was 94.3%. The viability, T/C (second compound 0.01 µM, first compound 0.01 µM) was 94.8%, the viability, T/C [3] was 97.3% and the viability, T/C [4] was 87.2%. For the same compound, the viability, T/C (second compound 0.0316 µM, first compound 0.000316 µM) was 91.6%, the viability, T/C (second compound 0.0316 µM, first compound 0.001 µM) was 97.8% and the viability, T/C (second compound 0.0316 µM, first compound 0.00316 µM) was 99.2%. For the same compound, the viability, T/C (second compound 0.0316 µM, first compound 0.01 µM) was 94%, the viability, T/C [5] was 103% and the viability, T/C [6] was 85.6%. For the same compound, the viability, T/C (second compound 0.1 µM, first compound 0.000316 µM) was 104%, the viability, T/C (second compound 0.1 µM, first compound 0.001 µM) was 93.9% and the viability, T/C (second compound 0.1 µM, first compound 0.00316 µM) was 100%. The viability, T/C (second compound 0.1 µM, first compound 0.01 µM) was 91.9%, the viability, T/C [7] was 105% and the viability, T/C [8] was 93.9%. It also gave a viability, T/C (second compound 0.316 µM, first compound 0.000316 µM) of 98.3%, a viability, T/C (second compound 0.316 µM, first compound 0.001 µM) of 93% and a viability, T/C (second compound 0.316 µM, first compound 0.00316 µM) of 89.4%. It also gave a viability, T/C (second compound 0.316 µM, first compound 0.01 µM) of 93%, a viability, T/C [9] of 99.7% and a viability, T/C [10] of 85.4%. The viability, T/C (second compound 1 µM, first compound 0.000316 µM) was 89.9%, the viability, T/C (second compound 1 µM, first compound 0.001 µM) was 86.8% and the viability, T/C (second compound 1 µM, first compound 0.00316 µM) was 84.2%. It also gave a viability, T/C (second compound 1 µM, first compound 0.01 µM) of 87.5%, a viability, T/C [11] of 80.8% and a viability, T/C [12] of 83.2%.

O=C(c1cc(Cc2n[nH]c(=O)c3ccccc23)ccc1F)N1CCN(C(=O)C2CC2)CC1 + CNC(C)C(=O)NC1CN(S(=O)(=O)c2cccc(S(=O)(=O)N3CCC4CCC(C(=O)NC(c5ccccc5)c5ccccc5)N4C(=O)C(NC(=O)C(C)NC)C3)c2)CCC2CCC(C(=O)NC(c3ccccc3)c3ccccc3)N2C1=O gave an IC50 (second compound 0.00316 µM) greater than 10 µM, an IC50 (second compound 0.01 µM) greater than 10 µM and an IC50 (second compound 0.0316 µM) greater than 10 µM. For the same compound, the IC50 (second compound 0.1 µM) was greater than 10 µM, the IC50 (second compound 0.316 µM) was greater than 10 µM and the IC50 (second compound 1 µM) was greater than 10 µM. The viability, T/C [1] was 91.4%, the viability, T/C [2] was 95.9% and the viability, T/C (second compound 0.00316 µM, first compound 0.316 µM) was 96.9%. It also gave a viability, T/C (second compound 0.00316 µM, first compound 1 µM) of 103%, a viability, T/C (second compound 0.00316 µM, first compound 3.16 µM) of 89.4% and a viability, T/C (second compound 0.00316 µM, first compound 10 µM) of 86.2%. For the same compound, the viability, T/C [3] was 94.1%, the viability, T/C [4] was 87.5% and the viability, T/C (second compound 0.01 µM, first compound 0.316 µM) was 91.9%. For the same compound, the viability, T/C (second compound 0.01 µM, first compound 1 µM) was 97.5%, the viability, T/C (second compound 0.01 µM, first compound 3.16 µM) was 110% and the viability, T/C (second compound 0.01 µM, first compound 10 µM) was 87.6%. For the same compound, the viability, T/C [5] was 98.1%, the viability, T/C [6] was 100% and the viability, T/C (second compound 0.0316 µM, first compound 0.316 µM) was 97.4%. It also gave a viability, T/C (second compound 0.0316 µM, first compound 1 µM) of 99.2%, a viability, T/C (second compound 0.0316 µM, first compound 3.16 µM) of 92.8% and a viability, T/C (second compound 0.0316 µM, first compound 10 µM) of 82.9%. It also gave a viability, T/C [7] of 106%, a viability, T/C [8] of 93.3% and a viability, T/C (second compound 0.1 µM, first compound 0.316 µM) of 90.6%. For the same compound, the viability, T/C (second compound 0.1 µM, first compound 1 µM) was 95.8%, the viability, T/C (second compound 0.1 µM, first compound 3.16 µM) was 91.3% and the viability, T/C (second compound 0.1 µM, first compound 10 µM) was 86.2%. For the same compound, the viability, T/C [9] was 90.9%, the viability, T/C [10] was 91.8% and the viability, T/C (second compound 0.316 µM, first compound 0.316 µM) was 85.1%. The viability, T/C (second compound 0.316 µM, first compound 1 µM) was 98.1%, the viability, T/C (second compound 0.316 µM, first compound 3.16 µM) was 87.2% and the viability, T/C (second compound 0.316 µM, first compound 10 µM) was 91.3%. It also gave a viability, T/C [11] of 90.5%, a viability, T/C [12] of 95% and a viability, T/C (second compound 1 µM, first compound 0.316 µM) of 84.4%. The viability, T/C (second compound 1 µM, first compound 1 µM) was 89.7%, the viability, T/C (second compound 1 µM, first compound 3.16 µM) was 85.9% and the viability, T/C (second compound 1 µM, first compound 10 µM) was 80.9%.
